Assays:
Assay in all cases: relative viability (nuclei count vs DMSO), 5 days (fraction); higher = more cells survive
LCLC-103H = system: LCLC-103H
Procedure, shortened: (§1)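 Relative viability was taken as the ratio of nuclei in treated wells to nuclei in vehicle wells. Lung cancer cell lines in 1536-well plates received compounds by pin tool one day after seeding, either one drug alone or a fixed anchor-drug dose plus five library-drug doses (not always all listed) in √10 steps. Nuclei were counted on 4× images after 5 days of treatment, and values are medians of duplicate plates.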

A-427 = system: A-427
Procedure, shortened: as §1

LXF-289 = system: LXF-289
Procedure, shortened: as §1

NCI-H1944 = system: NCI-H1944
Procedure, shortened: as §1

NCI-H520 = system: NCI-H520
Procedure, shortened: as §1

SW 1573 = system: SW 1573
Procedure, shortened: as §1

NCI-H522 = system: NCI-H522
Procedure, shortened: as §1

LOU-NH91 = system: LOU-NH91
Procedure, shortened: as §1

NCI-H1993 = system: NCI-H1993
Procedure, shortened: as §1

NCI-H358 = system: NCI-H358
Procedure, shortened: as §1

NCI-H2170 = system: NCI-H2170
Procedure, shortened: as §1

## Cc1csc(=NC2CCCCC2)n1/N=C/c1ccc(O)c(O)c1O [MIM1] + O=C(CCCCCCC(=O)Nc1ccccc1)NO [Vorinostat] (partner 1 µM)
LCLC-103H; first compound 0.2 µM
  relative viability: 0.731
LCLC-103H; first compound 0.6325 µM
  relative viability: 0.39
LCLC-103H; first compound 2 µM
  relative viability: 0.768
LCLC-103H; first compound 6.325 µM
  relative viability: 0.48
LCLC-103H; first compound 20 µM
  relative viability: 0.342
A-427; first compound 0.2 µM
  relative viability: 0.858
A-427; first compound 0.6325 µM
  relative viability: 0.663
A-427; first compound 2 µM
  relative viability: 0.849
A-427; first compound 6.325 µM
  relative viability: 0.745
A-427; first compound 20 µM
  relative viability: 0.312
LXF-289; first compound 0.2 µM
  relative viability: 0.777
LXF-289; first compound 0.6325 µM
  relative viability: 0.462
LXF-289; first compound 2 µM
  relative viability: 0.665
LXF-289; first compound 6.325 µM
  relative viability: 0.499
LXF-289; first compound 20 µM
  relative viability: 0.304
NCI-H1944; first compound 0.2 µM
  relative viability: 0.548
NCI-H1944; first compound 0.6325 µM
  relative viability: 0.499
NCI-H1944; first compound 2 µM
  relative viability: 0.39
NCI-H1944; first compound 6.325 µM
  relative viability: 0.428
NCI-H1944; first compound 20 µM
  relative viability: 0.228
NCI-H520; first compound 0.2 µM
  relative viability: 0.64
NCI-H520; first compound 0.6325 µM
  relative viability: 0.744
NCI-H520; first compound 2 µM
  relative viability: 0.833
NCI-H520; first compound 6.325 µM
  relative viability: 0.538
NCI-H520; first compound 20 µM
  relative viability: 0.308
SW 1573; first compound 0.2 µM
  relative viability: 0.806
SW 1573; first compound 0.6325 µM
  relative viability: 0.668
SW 1573; first compound 2 µM
  relative viability: 0.773
SW 1573; first compound 6.325 µM
  relative viability: 0.573
SW 1573; first compound 20 µM
  relative viability: 0.131
NCI-H522; first compound 0.2 µM
  relative viability: 0.858
NCI-H522; first compound 0.6325 µM
  relative viability: 0.916
NCI-H522; first compound 2 µM
  relative viability: 0.91
NCI-H522; first compound 6.325 µM
  relative viability: 0.891
NCI-H522; first compound 20 µM
  relative viability: 0.345
LOU-NH91; first compound 0.2 µM
  relative viability: 0.672
LOU-NH91; first compound 0.6325 µM
  relative viability: 0.822
LOU-NH91; first compound 2 µM
  relative viability: 0.699
LOU-NH91; first compound 6.325 µM
  relative viability: 0.359
LOU-NH91; first compound 20 µM
  relative viability: 0.298
NCI-H1993; first compound 0.2 µM
  relative viability: 0.851
NCI-H1993; first compound 0.6325 µM
  relative viability: 0.601
NCI-H1993; first compound 2 µM
  relative viability: 0.601
NCI-H1993; first compound 6.325 µM
  relative viability: 0.348
NCI-H1993; first compound 20 µM
  relative viability: 0.413
NCI-H358; first compound 0.2 µM
  relative viability: 0.741
NCI-H358; first compound 0.6325 µM
  relative viability: 0.628
NCI-H358; first compound 2 µM
  relative viability: 0.678
NCI-H358; first compound 6.325 µM
  relative viability: 0.235
NCI-H358; first compound 20 µM
  relative viability: 0.169
NCI-H2170; first compound 0.2 µM
  relative viability: 0.786
NCI-H2170; first compound 0.6325 µM
  relative viability: 0.696
NCI-H2170; first compound 2 µM
  relative viability: 0.748
NCI-H2170; first compound 6.325 µM
  relative viability: 0.479
NCI-H2170; first compound 20 µM
  relative viability: 0.138

— the supplement of paper PMC10307832
